The values below come from article PMC5552880, “The Bitter Taste Receptor TAS2R16 Achieves High Specificity and Accommodates Diverse Glycoside Ligands by using a Two-faced Binding Pocket” (Scientific Reports, 2017).

The target of one assay is T1, wild-type TAS2R16 (Homo sapiens, UniProt Q9NYV7).
T1 construct: FLAG (N); expressed in transfected cells; host or cells: HEK-293T
T1 sequence (Q9NYV7 1-291): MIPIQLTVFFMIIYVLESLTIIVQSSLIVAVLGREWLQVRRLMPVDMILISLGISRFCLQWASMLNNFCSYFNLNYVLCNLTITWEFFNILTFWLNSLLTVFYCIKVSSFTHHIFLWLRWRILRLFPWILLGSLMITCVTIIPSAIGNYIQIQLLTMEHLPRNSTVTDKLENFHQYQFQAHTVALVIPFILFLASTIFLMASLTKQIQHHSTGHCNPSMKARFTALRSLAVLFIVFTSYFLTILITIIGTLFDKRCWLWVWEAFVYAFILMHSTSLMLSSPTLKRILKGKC
Put plainly: Ca2+ flux assay, HEK-293T cells expressing wild-type TAS2R16 and Gα16gust44. The class given is cell-based. As to conditions: for activation of TAS2R16 (agonist screen): compounds screened at 10 mM, wild-type TAS2R16, Fig. 2a. The method, then: (§1) The TAS2R16 mutation library was tested for function using a Ca^2+ flux assay as described previously. Later screens of individual TAS2R16 mutant clones used 4-nitrophenyl-β-D-glucopyranoside. Briefly, HEK-293T cells, in poly-lysine coated, black 384-well plates with clear bottoms (Costar), were transfected with the TAS2R16 mutation library, and a plasmid expressing a Gα16 chimera containing the last 44 amino acids of rat gustducin (Gα16gust44). Cells were incubated for 22 hours at 37 °C then washed twice with a calcium indicator dye in HBSS containing 20 mM HEPES (Calcium 4 Assay kit, Molecular Devices), incubated with HBSS for 1.5 hr, then moved to a Flexstation II-384 (Molecular Devices) set at 32 °C. […] Concentrations for mutation library screening were chosen to be approximately 2 to 3 times higher than the EC50 values for the ligands to maximize the sensitivity of detecting decreases in signaling due to the mutation in each clone.
(§2) For Ca^2+ flux assays, the value of fluorescence at 30 seconds after ligand addition (the time of peak signal for wild-type TAS2R16) was used as the maximum value. […] Raw data obtained from surface expression and flux experiments were normalized to the values for wild-type TAS2R16 on each plate. Data sets were analyzed and represented as percentage over baseline signal. Mean and standard deviation values were calculated for each clone from replicate assay data.
(§3) Ligand dose-response data was analyzed with Graphpad Prism 5 software. Data was baseline subtracted and then fit using a sigmoidal dose-response (variable slope) equation.
For orientation: Calcium flux is commonly read through the fluorescence of an indicator in the cells.

For another assay, the target named is T2, W261A TAS2R16 (Homo sapiens, UniProt Q9NYV7, W261A).
T2 construct: FLAG (N); expressed in transfected cells; host or cells: HEK-293T
T2 sequence (Q9NYV7 1-291 W261A): T1 sequence (Q9NYV7 1-291) with W261A
Kind of assay: Ca2+ flux assay, W261A TAS2R16 variant. As to conditions: for activation of W261A variant: W261A TAS2R16, relative to wild-type; for decrease in EC50 with W261 mutation compared to WT: W261 to alanine or glycine vs WT. Type of assay: cell-based. How it is done: as §1, §2, §3

The test system of assay [1] is TAS2R16. Conditions: disaccharides; cited from earlier work.
Another assay concerns the target T3, S108T TAS2R16 (Homo sapiens, UniProt Q9NYV7, S108T).
T3 construct: FLAG (N); expressed in transfected cells; host or cells: HEK-293T
T3 sequence (Q9NYV7 1-291 S108T): T1 sequence (Q9NYV7 1-291) with S108T
Kind of assay: Ca2+ flux assay, mutation library clone S108T. The class given is cell-based. Conditions: library screening concentrations. How it is done:
as §1, §2

A further assay concerns the target T4, S228T TAS2R16 (Homo sapiens, UniProt Q9NYV7, S228T).
T4 construct: FLAG (N); expressed in transfected cells; host or cells: HEK-293T
T4 sequence (Q9NYV7 1-291 S228T): T1 sequence (Q9NYV7 1-291) with S228T
Put plainly: Ca2+ flux assay, mutation library clone S228T. Type of assay: cell-based. As to conditions: library screening concentrations. How it is done: as §1, §2

Another assay concerns the target T5, C79A TAS2R16 (Homo sapiens, UniProt Q9NYV7, C79A).
T5 construct: FLAG (N); expressed in transfected cells; host or cells: HEK-293T
Put plainly: Ca2+ flux assay, C79A TAS2R16 variant. As to conditions: Figure S3. The class given is cell-based. How it is done:
as §1
(§4) For Ca^2+ flux assays, the value of fluorescence at 30 seconds after ligand addition (the time of peak signal for wild-type TAS2R16) was used as the maximum value. […] Data sets were analyzed and represented as percentage over baseline signal. Mean and standard deviation values were calculated for each clone from replicate assay data.

A further assay has as its target T6, N96A TAS2R16 (Homo sapiens, UniProt Q9NYV7, N96A).
T6 construct: FLAG (N); expressed in transfected cells; host or cells: HEK-293T
Put plainly: Ca2+ flux assay, N96A TAS2R16 variant. Type of assay: cell-based. As to conditions: Fig. 7 dose-response. How it is done: as §1, §4
(§5) Ligand dose-response data was analyzed with Graphpad Prism 5 software. […]

The next assay has as its target T7, N96T TAS2R16 (Homo sapiens, UniProt Q9NYV7, N96T).
T7 construct: FLAG (N); expressed in transfected cells; host or cells: HEK-293T
Put plainly: Ca2+ flux assay, N96T TAS2R16 variant. Type of assay: cell-based. As to conditions: Fig. 7 dose-response. The method, then:
as §1, §4, §5

The next assay addresses T8, W261G TAS2R16 (Homo sapiens, UniProt Q9NYV7, W261G).
T8 construct: FLAG (N); expressed in transfected cells; host or cells: HEK-293T
Put plainly: Ca2+ flux assay, mutation library clone W261G. Type of assay: cell-based. As to conditions: W261G TAS2R16, relative to wild-type, Fig. 5A. How it is done:
as §1, §4

Another assay concerns TAS2R43. Conditions: cited from earlier work.
For assay [2], the system named is TAS2R16. As to conditions: cited from earlier work.
A further assay concerns TAS2R38. As to conditions: cited from earlier work.
The mark [3] stands for this setting: Fig. 5b dose-response, W261A TAS2R16.
The mark [4] stands for this setting: Fig. 2d dose-response, wild-type TAS2R16, HEK-293T, read-out: EC50.
Setting [5] is: Fig. 5b dose-response, wild-type TAS2R16, read-out: EC50 (WT).

Residue numbers refer to the chain shown, from its start. Entries after “also recorded” stand apart in the source; their conditions may differ. Read-outs that look alike come from different tables or passages of the source.

T7 sequence (Q9NYV7 whole entry N96T): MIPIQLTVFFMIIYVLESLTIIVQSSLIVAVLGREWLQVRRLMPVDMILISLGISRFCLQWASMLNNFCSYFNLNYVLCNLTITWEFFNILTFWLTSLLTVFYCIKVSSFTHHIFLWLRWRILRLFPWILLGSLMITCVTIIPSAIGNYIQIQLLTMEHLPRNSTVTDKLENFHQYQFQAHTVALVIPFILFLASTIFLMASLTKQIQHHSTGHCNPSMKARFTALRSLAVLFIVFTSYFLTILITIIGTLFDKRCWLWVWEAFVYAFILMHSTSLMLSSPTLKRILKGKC
T6 sequence (Q9NYV7 whole entry N96A): as the sequence (Q9NYV7 whole entry N96T) above, with T96A counted along it
T5 sequence (Q9NYV7 whole entry C79A): as the sequence (Q9NYV7 whole entry N96T) above, with C79A, T96N counted along it
T8 sequence (Q9NYV7 whole entry W261G): as the sequence (Q9NYV7 whole entry N96T) above, with T96N, W261G counted along it

With `OC[C@H]1O[C@@H](Sc2ccccc2)[C@H](O)[C@@H](O)[C@@H]1O` [phenyl-β-D-thioglucopyranoside], the “activation of TAS2R16 (agonist screen)” value on wild-type TAS2R16 was “moderate to robust activation”. In addition, the “activation of wild-type TAS2R16” value at wild-type TAS2R16 (wild-type TAS2R16, HEK-293T) is recorded as “activation”.

Consider `OC[C@H]1O[C@@H](Oc2ccccc2)[C@H](O)[C@@H](O)[C@@H]1O` [phenyl-β-glucoside, phenyl-β-D-glucoside], for which the “EC50 (W261A)” value at W261A TAS2R16 (setting [3]) is recorded as “high”. On wild-type TAS2R16 (Fig. 5b dose-response, wild-type TAS2R16), the “EC50 (WT)” value is reported as “high”. Moreover, the “activation of wild-type TAS2R16” value on wild-type TAS2R16 (wild-type TAS2R16, HEK-293T) is listed as “substantially weaker activation”.

On to `N#C[C@H](O[C@@H]1O[C@H](CO[C@@H]2O[C@H](CO)[C@@H](O)[C@H](O)[C@H]2O)[C@@H](O)[C@H](O)[C@H]1O)c1ccccc1` [amygdalin], for which the “activation of TAS2R16” value in the assay on TAS2R16 [1] is on record as “activation”.

Consider `CCCCCCO[C@@H]1O[C@H](CO)[C@@H](O)[C@H](O)[C@H]1O` [hexyl-glucoside, hexyl-β-D-glucopyranoside], for which, at wild-type TAS2R16 (setting [4]), the EC50 was 2100 µM. Moreover, the “Ca2+ flux signaling value” at S108T TAS2R16 and on S228T TAS2R16 was 122 % of wild-type throughout.

`C=CCC(=NOS(=O)(=O)O)S[C@@H]1O[C@H](CO)[C@@H](O)[C@H](O)[C@H]1O` (stereo in doubt) [sinigrin]: at wild-type TAS2R16 (wild-type TAS2R16, HEK-293T), the “activation of wild-type TAS2R16” value is recorded as “activation”.

With `CC(=O)N[C@H]1[C@H](Oc2ccccc2)O[C@H](CO)[C@@H](O)[C@@H]1O` [β-glucosaminide, phenyl-N-acetyl-β-D-glucosaminide], the EC50 on wild-type TAS2R16 (setting [4]) was determined as 2500 µM. The “activation of TAS2R16 (agonist screen)” value at wild-type TAS2R16 is “moderate to robust activation”. The “Ca2+ flux signaling value” on S108T TAS2R16 is 132 % of wild-type; on S228T TAS2R16 it was 105 % of wild-type. Besides, the “activation, % of wild-type activation” value on C79A TAS2R16 was 90 % of wild-type.

On to `O=[N+]([O-])c1ccc(O[C@@H]2O[C@H](CO)[C@@H](O)[C@H](O)[C@@H]2O)cc1` [4-NP-β-mannoside, 4-nitrophenyl-β-D-mannopyranoside], for which the EC50 on W261A TAS2R16 (setting [3]) is 200 µM; at N96A TAS2R16 it was 1000 µM; at wild-type TAS2R16 (setting [5]), 800 µM; at wild-type TAS2R16 (Fig. 6 comparative dose-response, wild-type TAS2R16, read-out: EC50 (WT)), 1200 µM; on wild-type TAS2R16 (Fig. 7 dose-response, wild-type TAS2R16, read-out: EC50 (WT)), 1100 µM; at wild-type TAS2R16 (setting [4]) it was 650 µM. Moreover, it took 200 µM to reach a half-maximal effect on N96T TAS2R16 (EC50). Moreover, at W261A TAS2R16, the “activation of W261A variant” value is given as “strongly activated; also recorded: increased the activation”. In addition, the “decrease in EC50 with W261 mutation compared to WT” value at W261A TAS2R16 is recorded as ~ 4 fold. Further, on wild-type TAS2R16 (wild-type TAS2R16, Fig. 6A), the “lower EC50 than 4-NP-β-glucoside” value worked out at 4 fold. The “Ca2+ flux signaling value” at S108T TAS2R16 was 103 % of wild-type; at S228T TAS2R16, 120 % of wild-type.

Compound `O=[N+]([O-])c1ccc(O[C@@H]2O[C@H](CO)[C@@H](O)[C@H](O)[C@H]2O)cc1` [4-NP-β-glucoside, 4-nitrophenyl-β-D-glucopyranoside] registered an EC50 on W261A TAS2R16 (setting [3]) of 1800 µM. At W261A TAS2R16, the “activation of W261A variant” value was “strongly activated; also recorded: higher than wild-type; also recorded: increased the activation” and the “decrease in EC50 with W261 mutation compared to WT” value is given as ~ 4 fold. At W261G TAS2R16, the “activation of W261G variant” value is recorded as “higher than wild-type”. In addition, at wild-type TAS2R16 (setting [5]), the EC50 was 4900 µM.

Take gentiobiose: in the assay with TAS2R16 [1], the “activation of TAS2R16” value is given as “activation”.

Regarding `CCCN(CCC)S(=O)(=O)c1ccc(C(=O)O)cc1` [probenecid], the “action on TAS2R43” value in the assay on TAS2R43 is “allosteric inhibitor”. The “action on TAS2R16” value in the assay on TAS2R16 [2] is given as “allosteric inhibitor”. In addition, the “action on TAS2R38” value in the assay on TAS2R38 is given as “allosteric inhibitor”.

As usually defined, the EC50 is the concentration that produces a half-maximal response.
